assay: recombinant barcode read abundance after kanamycin selection (control-corrected) (log10(CPM+1)); higher = more efficient recombination; sequences stand for … in AGTGCAGAGAAAATCGGCCAGTTTTCTCTGCCTGCAGTCCGCATGCCGT…AGATTTATGCAGCGGACTGCCTTTCTCCCAAAGTGATAAACCGGACAGTATCATGGACCGGTTTTCCCGGTAATCCGTATTTGCAAGGTTGGTTTCACT; site = the 11-nt target
How it was run: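 This pooled E. coli screen matched targets with IS621 bridge RNA target-binding loops. Plating was done in duplicate on chloramphenicol/ampicillin LB agar as a control and on chloramphenicol/ampicillin/kanamycin plus 0.1 mM IPTG. Recombination efficiency reflects barcode counts at recombinant junctions as counts per million, averaged and control-corrected. The figures are log10(CPM+1).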
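Also: IS621 recombinase and bridge RNA in Escherichia coli cells.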

“TCGAAGTCTTGGGTTCTAACCTGTTGCTA (site AGATCTCCTAC)” and “TCGAAGTCTTGGGTTCTAACCTGTTGCTA (site TCGAAGTCTTA)” are within 0.2 log units of each other in “recombinant barcode read abundance (log10)” value: 0.0769 for the first, 0.272 for the second.

“TCGAGGCCTTGGGTTCTAACCTGTTGCTA (site CATCCATCTAT)” and “TCGAGGCCTTGGGTTCTAACCTGTTGCTA (site TCGAGGCCTTA)” are within 0.2 log units of each other in “recombinant barcode read abundance (log10)” value: 0.162 for the first, 0.0602 for the second.

Compared with “TCGAGTCCTTGGGTTCTAACCTGTTGCGG (site TCGAGTCCTCC)”, “TCGAGTCCTTGGGTTCTAACCTGTTGCGG (site TTGAGGCCTCC)” is lower in “recombinant barcode read abundance (log10)” value: 1.08 for the first, 0 for the second.

Compared with “TCGAGTGCTTGGGTTCTAACCTGTTGCAG (site CTACTATCTAC)”, “TCGAGTGCTTGGGTTCTAACCTGTTGCAG (site TCGAGTGCTCT)” is higher in “recombinant barcode read abundance (log10)” value: 0.0294 for the first, 0.263 for the second.

“TCGATCCCTTGGGTTCTAACCTGTTGCCT (site TCAATCCCTAG)” and “TCGATCCCTTGGGTTCTAACCTGTTGCCT (site TCCATCCCTAG)” are within 0.2 log units of each other in “recombinant barcode read abundance (log10)” value: 0.194 for the first, 0.144 for the second.

Compared with “TCGATCCCTTGGGTTCTAACCTGTTGCCT (site TCGATCCCTAG)”, “TCGATCCCTTGGGTTCTAACCTGTTGCCT (site TCTATCCCTAG)” is lower in “recombinant barcode read abundance (log10)” value: 0.577 for the first, 0.0661 for the second.

“TCGATTACTTGGGTTCTAACCTGTTGCCT (site TCGATCACTAG)” and “TCGATTACTTGGGTTCTAACCTGTTGCCT (site TCGATTACTAG)” are within 0.2 log units of each other in “recombinant barcode read abundance (log10)” value: 0.269 for the first, 0.123 for the second.

“TCGCACACTTGGGTTCTAACCTGTTGCCT (site ACGCACACTAG)” and “TCGCACACTTGGGTTCTAACCTGTTGCCT (site CCGCACACTAG)” are within 0.2 log units of each other in “recombinant barcode read abundance (log10)” value: 0.276 for the first, 0.324 for the second.

“TCGCACACTTGGGTTCTAACCTGTTGCCT (site GCGCACACTAG)” and “TCGCACACTTGGGTTCTAACCTGTTGCCT (site TCGCACACTAG)” are within 0.2 log units of each other in “recombinant barcode read abundance (log10)” value: 0.814 for the first, 0.622 for the second.

“TCGCAGACTTGGGTTCTAACCTGTTGCAC (site TCGCAGACTGT)” and “TCGCAGACTTGGGTTCTAACCTGTTGCAC (site TGGCCGACTGT)” are within 0.2 log units of each other in “recombinant barcode read abundance (log10)” value: 0.0284 for the first, 0.119 for the second.

“TCGCCTACTTGGGTTCTAACCTGTTGCCG (site TCCCCGACTCG)” and “TCGCCTACTTGGGTTCTAACCTGTTGCCG (site TCGCCTACTCG)” are within 0.2 log units of each other in “recombinant barcode read abundance (log10)” value: 0.255 for the first, 0.19 for the second.

“TCGCGCTCTTGGGTTCTAACCTGTTGCTT (site TCGAACTCTAA)” and “TCGCGCTCTTGGGTTCTAACCTGTTGCTT (site TCGCGCTCTAA)” are within 0.2 log units of each other in “recombinant barcode read abundance (log10)” value: 0.233 for the first, 0.419 for the second.

“TCGCTACCTTGGGTTCTAACCTGTTGCCT (site TCGCTACCTAG)” and “TCGCTACCTTGGGTTCTAACCTGTTGCCT (site TGACTACCTAG)” are within 0.2 log units of each other in “recombinant barcode read abundance (log10)” value: 0.109 for the first, 0.157 for the second.

Compared with “TCGGAATCTTGGGTTCTAACCTGTTGCCT (site GCGGAATCTAG)”, “TCGGAATCTTGGGTTCTAACCTGTTGCCT (site TCGGAATCTAG)” is higher in “recombinant barcode read abundance (log10)” value: 0 for the first, 0.543 for the second.

First: TCGGAGTCTTGGGTTCTAACCTGTTGCTT (site TCGGAGTCTAA)
Second: TCGGAGTCTTGGGTTCTAACCTGTTGCTT (site TCGGAGTCTAC)
The “recombinant barcode read abundance (log10)” value of the first is higher: 1.87 for the first, 0.501 for the second.

Going from “TCGGAGTCTTGGGTTCTAACCTGTTGCTT (site TCGGAGTCTAG)” to “TCGGAGTCTTGGGTTCTAACCTGTTGCTT (site TCGGAGTCTAT)”, the “recombinant barcode read abundance (log10)” value rises from 1.17 to 1.39.

“TCGGATGCTTGGGTTCTAACCTGTTGCAT (site GTTTCGACTTA)” and “TCGGATGCTTGGGTTCTAACCTGTTGCAT (site TCGGATGCTAT)” are within 0.2 log units of each other in “recombinant barcode read abundance (log10)” value: 0.272 for the first, 0.417 for the second.

First: TCGGCTCCTTGGGTTCTAACCTGTTGCCT (site TCGGCTCCTAG)
Second: TCGGCTCCTTGGGTTCTAACCTGTTGCCT (site TTGGCGCCTAG)
The “recombinant barcode read abundance (log10)” value of the first is higher: 0.712 for the first, 0.149 for the second.

Compared with “TCGGGGTCTTGGGTTCTAACCTGTTGCCT (site ACGGGGTCTAG)”, “TCGGGGTCTTGGGTTCTAACCTGTTGCCT (site CCGGGGTCTAG)” is lower in “recombinant barcode read abundance (log10)” value: 1.23 for the first, 0.543 for the second.

First: TCGGGGTCTTGGGTTCTAACCTGTTGCCT (site GCGGGGTCTAG)
Second: TCGGGGTCTTGGGTTCTAACCTGTTGCCT (site TCGGGGTCTAG)
The “recombinant barcode read abundance (log10)” value of the first is lower: 0.0776 for the first, 1.27 for the second.

Compared with “TCGGTTCCTTGGGTTCTAACCTGTTGCCT (site TAGGTTCCTAG)”, “TCGGTTCCTTGGGTTCTAACCTGTTGCCT (site TCGGTTCCTAG)” is higher in “recombinant barcode read abundance (log10)” value: 0.439 for the first, 0.811 for the second.

“TCGTAGACTTGGGTTCTAACCTGTTGCTA (site GGTCGCCCTAC)” and “TCGTAGACTTGGGTTCTAACCTGTTGCTA (site TCGTAGACTTA)” are within 0.2 log units of each other in “recombinant barcode read abundance (log10)” value: 0.16 for the first, 0.215 for the second.

Going from “TCGTCACCTTGGGTTCTAACCTGTTGCCT (site ACGTCACCTAG)” to “TCGTCACCTTGGGTTCTAACCTGTTGCCT (site CCGTCACCTAG)”, the “recombinant barcode read abundance (log10)” value rises from 0 to 0.332.

Compared with “TCGTCACCTTGGGTTCTAACCTGTTGCCT (site GCGTCACCTAG)”, “TCGTCACCTTGGGTTCTAACCTGTTGCCT (site TCGTCACCTAG)” is higher in “recombinant barcode read abundance (log10)” value: 0.139 for the first, 0.348 for the second.

“TCGTCCTCTTGGGTTCTAACCTGTTGCCT (site TCGTCATCTAG)” and “TCGTCCTCTTGGGTTCTAACCTGTTGCCT (site TCGTCCTCTAG)” are within 0.2 log units of each other in “recombinant barcode read abundance (log10)” value: 0.225 for the first, 0.323 for the second.

“TCGTGCGCTTGGGTTCTAACCTGTTGCCT (site TCGTGCACTAG)” and “TCGTGCGCTTGGGTTCTAACCTGTTGCCT (site TCGTGCCCTAG)” are within 0.2 log units of each other in “recombinant barcode read abundance (log10)” value: 0.177 for the first, 0.087 for the second.

“TCGTGCGCTTGGGTTCTAACCTGTTGCCT (site TCGTGCGCTAG)” and “TCGTGCGCTTGGGTTCTAACCTGTTGCCT (site TCGTGCTCTAG)” are within 0.2 log units of each other in “recombinant barcode read abundance (log10)” value: 0.0883 for the first, 0 for the second.

“TCGTGTTCTTGGGTTCTAACCTGTTGCTA (site CCTTGTTCTTA)” and “TCGTGTTCTTGGGTTCTAACCTGTTGCTA (site TCGTGTTCTTA)” are within 0.2 log units of each other in “recombinant barcode read abundance (log10)” value: 0.0623 for the first, 0.0576 for the second.

“TCGTTCGCTTGGGTTCTAACCTGTTGCCT (site TCCTTCACTAG)” and “TCGTTCGCTTGGGTTCTAACCTGTTGCCT (site TCGTTCGCTAG)” are within 0.2 log units of each other in “recombinant barcode read abundance (log10)” value: 0.0905 for the first, 0.21 for the second.

“TCTAAGTCTTGGGTTCTAACCTGTTGCCC (site TCTAAGTCTAG)” and “TCTAAGTCTTGGGTTCTAACCTGTTGCCC (site TCTAAGTCTCG)” are within 0.2 log units of each other in “recombinant barcode read abundance (log10)” value: 0.132 for the first, 0.0902 for the second.

“TCTAAGTCTTGGGTTCTAACCTGTTGCCC (site TCTAAGTCTGG)” and “TCTAAGTCTTGGGTTCTAACCTGTTGCCC (site TCTAAGTCTTG)” are within 0.2 log units of each other in “recombinant barcode read abundance (log10)” value: 0.194 for the first, 0.00905 for the second.

“TCTAAGTCTTGGGTTCTAACCTGTTGCCT (site TCTAAGTCTAG)” and “TCTAAGTCTTGGGTTCTAACCTGTTGCCT (site TCTAAGTCTCG)” are within 0.2 log units of each other in “recombinant barcode read abundance (log10)” value: 0.134 for the first, 0.132 for the second.

“TCTAAGTCTTGGGTTCTAACCTGTTGCCT (site TCTAAGTCTGG)” and “TCTAAGTCTTGGGTTCTAACCTGTTGCCT (site TCTAAGTCTTG)” are within 0.2 log units of each other in “recombinant barcode read abundance (log10)” value: 0.172 for the first, 0.281 for the second.
